Common to all, as to assay type: functional
The test system of experiment [1] is Culex pipiens pallens. The experiment in a line: Insecticidal activity against Culex pipiens pallens (mosquito) fourth-instar larvae assessed as insect mortality at 0.5 mg/kg measured 2 days post compound treatment. Particulars: 48 h.
The test system of experiment [2] is Mythimna separata. As to the kind of experiment: Insecticidal activity against Mythimna separata (Oriental armyworm) fourth-instar larvae infested compound pre-treated corn leaves assessed as insect mortality at 10 mg/kg measured 2 days post compound treatment.
The test system of experiment [3] is Culex pipiens pallens. The experiment in a line: Insecticidal activity against Culex pipiens pallens (mosquito) fourth-instar larvae assessed as insect mortality at 0.25 mg/kg measured 2 days post compound treatment. The following applies: 48 h.
The test system of experiment [4] is Tetranychus cinnabarinus. The experiment in a line: Insecticidal activity against Tetranychus cinnabarinus (carmine spider mite) infested on Sieva bean plants leaves exposed to compound formulation at 200 mg/kg assessed as insect mortality measured 2 days post compound treatment. Particulars: 48 h.
The subject of experiment [5] is Mythimna separata. The experiment in a line: Insecticidal activity against Mythimna separata (Oriental armyworm) fourth-instar larvae infested compound pre-treated corn leaves assessed as insect mortality at 5 mg/kg measured 2 days post compound treatment.
In experiment [6] the test system is Culex pipiens pallens. As to the kind of experiment: Insecticidal activity against Culex pipiens pallens (mosquito) fourth-instar larvae assessed as insect mortality at 0.1 mg/kg measured 2 days post compound treatment. The following applies: 48 h.
Experiment [7] has as its system Mythimna separata. As to the kind of experiment: Insecticidal activity against Mythimna separata (Oriental armyworm) fourth-instar larvae infested compound pre-treated corn leaves assessed as insect mortality at 20 mg/kg measured 2 days post compound treatment.
For experiment [8], the system named is Tetranychus cinnabarinus. As to the kind of experiment: Insecticidal activity against Tetranychus cinnabarinus (carmine spider mite) infested on Sieva bean plants leaves exposed to compound formulation at 100 mg/kg assessed as insect mortality measured 2 days post compound treatment. Particulars: 48 h.
The subject of experiment [9] is Tetranychus cinnabarinus. As to the kind of experiment: Insecticidal activity against Tetranychus cinnabarinus (carmine spider mite) infested on Sieva bean plants leaves exposed to compound formulation at 50 mg/kg assessed as insect mortality measured 2 days post compound treatment. Particulars: 48 h.

A word on the mortality: it is the percentage killed. With `CCC(C)OC(=O)C(=O)OCn1c(-c2ccc(Cl)cc2)c(C#N)c(Br)c1C(F)(F)F` (stereo unspecified), the mortality at 0.5 mg/kg in [1] stood at 100%. The mortality at 10 mg/kg in experiment [2] is 100%. Moreover, the mortality at 0.25 mg/kg in experiment [3] amounted to 90%. Also, in [4], the mortality at 200 mg/kg stood at 100%. Moreover, the mortality at 5 mg/kg in [5] was found to be 0%. The mortality at 0.1 mg/kg in experiment [6] worked out at 10%. The mortality at 20 mg/kg in experiment [7] turned out to be 100%.

`CC(C)COC(=O)C(=O)OCn1c(-c2ccc(Cl)cc2)c(C#N)c(Br)c1C(F)(F)F`: in [1], the mortality at 0.5 mg/kg amounted to 100%. The mortality at 10 mg/kg in experiment [2] worked out at 100%. For the same compound, the mortality at 0.25 mg/kg in experiment [3] is 90%. Also, in [4], the mortality at 200 mg/kg came to 100%. Further, the mortality at 5 mg/kg in [5] was found to be 0%. Further, the mortality at 0.1 mg/kg in experiment [6] turned out to be 10%. Besides, the mortality at 20 mg/kg in experiment [7] worked out at 100%.

Turning to `CCCOC(=O)C(=O)OCn1c(-c2ccc(Cl)cc2)c(C#N)c(Br)c1C(F)(F)F`, in experiment [1], the mortality at 0.5 mg/kg was 100%. In experiment [2], the mortality at 10 mg/kg came to 100%. In addition, the mortality at 0.25 mg/kg in [3] amounted to 100%. For the same compound, the mortality at 200 mg/kg in experiment [4] amounted to 100%. For the same compound, the mortality at 5 mg/kg in [5] is 0%. Moreover, the mortality at 0.1 mg/kg in experiment [6] is 10%. For the same compound, the mortality at 20 mg/kg in experiment [7] stood at 100%.

With `CCOCn1c(-c2ccc(Cl)cc2)c(C#N)c(Br)c1C(F)(F)F` [CHLORFENAPYR], in experiment [1], the mortality at 0.5 mg/kg was 100%. Also, in experiment [2], the mortality at 10 mg/kg is 100%. Moreover, the mortality at 0.25 mg/kg in [3] is 100%. In [4], the mortality at 200 mg/kg came to 100%. Moreover, the mortality at 5 mg/kg in experiment [5] was 0%. Besides, the mortality at 100 mg/kg in experiment [8] was determined as 97%. Moreover, the mortality at 0.1 mg/kg in experiment [6] was determined as 100%. For the same compound, the mortality at 50 mg/kg in experiment [9] was found to be 93%. In addition, the mortality at 20 mg/kg in [7] was 100%.

`N#Cc1c(Br)c(C(F)(F)F)n(COC(=O)C(=O)OCC(F)(F)F)c1-c1ccc(Cl)cc1`: in experiment [1], the mortality at 0.5 mg/kg is 100%. Besides, the mortality at 10 mg/kg in experiment [2] was determined as 10%. The mortality at 0.25 mg/kg in [3] came to 30%. Further, the mortality at 200 mg/kg in experiment [4] was determined as 100%. Also, the mortality at 100 mg/kg in [8] worked out at 95%. In addition, the mortality at 0.1 mg/kg in experiment [6] was 0%. Further, the mortality at 50 mg/kg in experiment [9] was 92%. Moreover, in experiment [7], the mortality at 20 mg/kg was 70%.

For `N#Cc1c(Br)c(C(F)(F)F)n(COC(=O)C(=O)Nc2ccccc2)c1-c1ccc(Cl)cc1`, the mortality at 0.5 mg/kg in experiment [1] worked out at 100%. The mortality at 10 mg/kg in [2] turned out to be 0%. The mortality at 0.25 mg/kg in experiment [3] was found to be 30%. In addition, the mortality at 200 mg/kg in experiment [4] amounted to 99%. Besides, the mortality at 100 mg/kg in experiment [8] worked out at 92%. In addition, the mortality at 0.1 mg/kg in experiment [6] was found to be 0%. Moreover, the mortality at 50 mg/kg in experiment [9] is 86%. Besides, in experiment [7], the mortality at 20 mg/kg was 100%.

The record behind these values is ChEMBL document CHEMBL3046536, “Synthesis, crystal structure, and insecticidal activity of novel N-alkyloxyoxalyl derivatives of 2-arylpyrrole” (2008).
